Results published in US10532995B2, “Substituted pyrazole compounds as serine protease inhibitors” (VERSEON CORPORATION, priority 2015, dated 2020).
Counter-ions that a name gives are not always drawn.

Biological target: T1, Human thrombin (Homo sapiens, UniProt P00734)
T1 construct: purchased Haematologic Technologies Inc
Test: Thrombin protease activity inhibition, chromogenic substrate S-2238
Type: biochemical
Settings: 3 nM thrombin, 125 μM S-2238, 10 min pre-incubation, RT
Procedure: The thrombin activity reported herein (e.g., Table A) was obtained as follows. […] Thrombin was assayed in buffer containing 0.05 M Tris (pH 7.4), 0.015 M NaCl and 0.01% PEG-8000. The final concentration of enzyme used was 3 nM thrombin. […] All assays were performed in 96-well microtiter plates at room temperature (RT). […] Inhibitor IC50 values were determined by adding test compound as ten point, three-fold serial dilutions in buffer solution, as known in the art. The plate was read at 10 minutes after substrate addition. The IC50 was calculated by plotting the percent (%) inhibition against compound concentration and fitting the data to a constrained four parameter sigmoidal curve, as known in the art.

Question: For `O=C(N1CCOCC1)N1C2CCC1CC(c1cc(NCc3ccc(Cl)s3)[nH]n1)C2` (stereo not shown) [Entry 214, N-[(5-chlorothiophen-2-yl)methyl]-3-[8-(morpholine-4-carbonyl)-8-azabicyclo[3.2.1]octan-3-yl]-1H-pyrazol-5-amine], which IC50 is on record?
Answer: > 100 µM

Question: How did the IC50 turn out when `O=C(N1CCC(c2n[nH]c(NCc3ccc(Cl)s3)c2F)CC1)C1(O)CC1` [Entry 104, 1-[4-(5-[(5-chlorothiophen-2-yl)methyl]amino-4-fluoro-1H-pyrazol-3-yl)piperidine-1-carbonyl]cyclopropan-1-ol] was run?
Answer: 10 to 100 µM

Question: Which IC50 does the source give for `Cc1c(C2CCN(C(=O)OC(C)(C)C)CC2)nn(C(=O)C(C)(C)C)c1NCc1ccc(Cl)s1` [Entry 293, tert-butyl 4-(5-[(5-chlorothiophen-2-yl)methyl]amino-1-(2,2-dimethylpropanoyl)-4-methyl-1H-pyrazol-3-yl)piperidine-1-carboxylate] here?
Answer: 0.1 to 1 µM

Question: Which IC50 does the source give for `Clc1ccc(CNc2cc(C3CCNC3)n[nH]2)s1` (stereo not shown) [Entry 190, N-[(5-chlorothiophen-2-yl)methyl]-3-(pyrrolidin-3-yl)-1H-pyrazol-5-amine] here?
Answer: 1 to 10 µM

Question: With `Clc1ccc(CNc2cc(C3CCN(Cc4ncon4)CC3)n[nH]2)s1` [Entry 191, N-[(5-chlorothiophen-2-yl)methyl]-3-[1-(1,2,4-oxadiazol-3-ylmethyl)piperidin-4-yl]-1H-pyrazol-5-amine] as the molecule, how does the IC50 read?
Answer: > 100 µM

Question: `C=CCOC(=O)N1CCN(C(=O)CN2CCOCC2)CC1c1cc(NCc2ccc(Cl)s2)n(C(=O)C(C)(C)C)n1` (stereo not shown) [Entry 245, prop-2-en-1-yl 2-(5-[(5-chlorothiophen-2-yl)methyl]amino-1-(2,2-dimethylpropanoyl)-1H-pyrazol-3-yl)-4-[2-(morpholin-4-yl)acetyl]piperazine-1-carboxylate] was tested. Which IC50 did it give?
Answer: 1 to 10 µM

Question: `COc1ccccc1C(=O)n1nc(C2CCCN2C(=O)C(C)(C)C)cc1NCc1ccc(Cl)s1` (stereo not shown) [Entry 90, 1-[2-(5-[(5-chlorothiophen-2-yl)methyl]amino-1-(2-methoxybenzoyl)-1H-pyrazol-3-yl)pyrrolidin-1-yl]-2,2-dimethylpropan-1-one] was tested. Which IC50 did it give?
Answer: 0.1 to 1 µM

Question: For `CC(C)(C)C(=O)n1nc(C2(C)CCNC2=O)cc1NCc1ccc(Cl)s1` (stereo not shown) [Entry 116, 3-(5-[(5-chlorothiophen-2-yl)methyl]amino-1-(2,2-dimethylpropanoyl)-1H-pyrazol-3-yl)-3-methylpyrrolidin-2-one], which IC50 is on record?
Answer: < 0.1 µM

Question: For `CS(=O)(=O)N1CCC(c2cc(NCc3ccc(Cl)s3)[nH]n2)C1` (stereo not shown) [Entry 175, N-[(5-chlorothiophen-2-yl)methyl]-3-(1-methanesulfonylpyrrolidin-3-yl)-1H-pyrazol-5-amine], which IC50 is on record?
Answer: > 100 µM

Question: With `COc1ccccc1C(=O)n1nc(C2CNC2)cc1NCc1ccc(Cl)s1` [Entry 127, 3-(azetidin-3-yl)-N-[(5-chlorothiophen-2-yl)methyl]-1-(2-methoxybenzoyl)-1H-pyrazol-5-amine hydrochloride] as the molecule, how does the IC50 read?
Answer: 10 to 100 µM

Question: `C=CCOC(=O)N1CCC(c2cc(NCc3ccc(Cl)s3)[nH]n2)CC1` [Entry 266, prop-2-en-1-yl 4-(5-[(5-chlorothiophen-2-yl)methyl]amino-1H-pyrazol-3-yl)piperidine-1-carboxylate] was tested. Which IC50 did it give?
Answer: > 100 µM

Question: With `COc1ccccc1C(=O)n1nc(C2(C)CCNCC2)cc1NCc1ccc(Cl)s1` [Entry 154, N-[(5-chlorothiophen-2-yl)methyl]-1-(2-methoxybenzoyl)-3-(4-methylpiperidin-4-yl)-1H-pyrazol-5-amine] as the molecule, how does the IC50 read?
Answer: 1 to 10 µM

Question: For `C=CCOC(=O)N1CCN(C(=O)CN2CCOCC2)CC1c1cc(NCc2ccc(Cl)s2)[nH]n1` (stereo not shown) [Entry 251, prop-2-en-1-yl 2-(5-[(5-chlorothiophen-2-yl)methyl]amino-1H-pyrazol-3-yl)-4-[2-(morpholin-4-yl)acetyl]piperazine-1-carboxylate], which IC50 is on record?
Answer: > 100 µM

Question: With `O=C(N1CCOCC1)N1C2CCC1CC(c1cc(NCc3ccc(Cl)s3)n(C(=O)c3cscn3)n1)C2` (stereo not shown) [Entry 213, N-[(5-chlorothiophen-2-yl)methyl]-3-[8-(morpholine-4-carbonyl)-8-azabicyclo[3.2.1]octan-3-yl]-1-(1,3-thiazole-4-carbonyl)-1H-pyrazol-5-amine] as the molecule, how does the IC50 read?
Answer: < 0.1 µM

Question: How did the IC50 turn out when `O=C(c1ccsc1)n1nc(C2CNC2)cc1NCc1ccc(Cl)s1` [Entry 129, 3-(azetidin-3-yl)-N-[(5-chlorothiophen-2-yl)methyl]-1-(thiophene-3-carbonyl)-1H-pyrazol-5-amine; trifluoroacetic acid] was run?
Answer: 1 to 10 µM

Question: Which IC50 does the source give for `CC(C)(C)C(=O)n1nc(C2CCN(Cc3ccccc3)CC2)cc1NCc1ccc(Cl)s1` [Entry 95, 1-[3-(1-benzylpiperidin-4-yl)-5-[(5-chlorothiophen-2-yl)methyl]amino-1H-pyrazol-1-yl]-2,2-dimethylpropan-1-one] here?
Answer: < 0.1 µM

Question: With `CC1(c2cc(NCc3ccc(Cl)s3)n(C(=O)c3ccsc3)n2)CCCN1` (stereo not shown) [Entry 177, N-[(5-chlorothiophen-2-yl)methyl]-3-(2-methylpyrrolidin-2-yl)-1-(thiophene-3-carbonyl)-1H-pyrazol-5-amine; formic acid] as the molecule, how does the IC50 read?
Answer: < 0.1 µM

Question: How did the IC50 turn out when `C=CCOC(=O)N1CCC(c2nn(C(=O)c3cscn3)c(NCc3ccc(Cl)s3)c2C)CC1` [Entry 270, prop-2-en-1-yl 4-(5-[(5-chlorothiophen-2-yl)methyl]amino-4-methyl-1-(1,3-thiazole-4-carbonyl)-1H-pyrazol-3-yl)piperidine-1-carboxylate] was run?
Answer: < 0.1 µM

Question: `CC(C)(C)OC(=O)N1CCCC(c2cc(NCc3ccc(Cl)s3)n(C(=O)C3(C)CCOCC3)n2)C1` (stereo not shown) [Entry 287, tert-butyl 3-(5-[(5-chlorothiophen-2-yl)methyl]amino-1-(4-methyloxane-4-carbonyl)-1H-pyrazol-3-yl)piperidine-1-carboxylate] was tested. Which IC50 did it give?
Answer: < 0.1 µM

Question: How did the IC50 turn out when `O=C(CN1CCC(c2cc(NCc3ccc(Cl)s3)[nH]n2)CC1)N1CCOCC1` [Entry 111, 2-[4-(5-[(5-chlorothiophen-2-yl)methyl]amino-1H-pyrazol-3-yl)piperidin-1-yl]-1-(morpholin-4-yl)ethan-1-one] was run?
Answer: > 100 µM

Question: For `Clc1ccc(CNc2cc(C3CCCO3)n[nH]2)s1` (stereo not shown) [Entry 184, N-[(5-chlorothiophen-2-yl)methyl]-3-(oxolan-2-yl)-1H-pyrazol-5-amine], which IC50 is on record?
Answer: > 100 µM

Question: For `C=CCOC(=O)N1CCN(C(=O)N2CCOCC2)CC1c1cc(NCc2ccc(Cl)s2)n(C(=O)C(C)(C)C)n1` (stereo not shown) [Entry 244, prop-2-en-1-yl 2-(5-[(5-chlorothiophen-2-yl)methyl]amino-1-(2,2-dimethylpropanoyl)-1H-pyrazol-3-yl)-4-(morpholine-4-carbonyl)piperazine-1-carboxylate], which IC50 is on record?
Answer: 1 to 10 µM

Question: How did the IC50 turn out when `CC(C)(C)C(=O)N1CC(c2cc(NCc3ccc(Cl)s3)[nH]n2)C1` [Entry 97, 1-[3-(5-[(5-chlorothiophen-2-yl)methyl]amino-1H-pyrazol-3-yl)azetidin-1-yl]-2,2-dimethylpropan-1-one] was run?
Answer: > 100 µM

Question: With `O=C(N1CCOCC1)N1CCC(c2cc(NCc3ccc(Cl)s3)n(C(=O)c3cscn3)n2)C1` (stereo not shown) [Entry 205, N-[(5-chlorothiophen-2-yl)methyl]-3-[1-(morpholine-4-carbonyl)pyrrolidin-3-yl]-1-(1,3-thiazole-4-carbonyl)-1H-pyrazol-5-amine] as the molecule, how does the IC50 read?
Answer: < 0.1 µM

Question: `Clc1ccc(CNc2cc(C3CCN(Cc4ccccc4)CC3)n[nH]2)s1` [Entry 113, 3-(1-benzylpiperidin-4-yl)-N-[(5-chlorothiophen-2-yl)methyl]-1H-pyrazol-5-amine] was tested. Which IC50 did it give?
Answer: > 100 µM
